# Results taken from patent US20020061869A1, “Free insulin testosterone test” (priority 1998, published 2002).
# Legend:
# [1] = cited from earlier work
# [2] = system: rats; set-up: dose or concentration left out as unconfirmed; conditions: female rats, high dose, cited from earlier work
# [3] = system: men with cluster headaches; test: Testosterone supplementation in men with cluster headaches and low Testosterone Ratio Test; format: in vivo, human; conditions: two men; supplementation to therapeutic levels at the normal male maximum
# [4] = system: insulin dependent diabetes mellitus patient; test: Example 1: intramuscular aqueous testosterone in an insulin dependent diabetic person with gangrene; format: in vivo, human
# Description: C. W. was a person with a fifteen-year history of insulin dependent diabetes mellitus. They were hospitalized with gangrene of the middle finger of their right hand and was scheduled for amputation. They had already had bilateral femoral-popliteal bypass surgery for vascular insufficiency of the lower extremities. Due to anorexia, they were given an intramuscular injection of 200 mg of aqueous testosterone. Their fasting glucose fell from 212 to 159.
# [5] = target: T1, sex hormone-binding globulin (Homo sapiens, UniProt P04278); conditions: readily reversible at 37° C.; cited from earlier work
# T1 sequence (P04278 30-402): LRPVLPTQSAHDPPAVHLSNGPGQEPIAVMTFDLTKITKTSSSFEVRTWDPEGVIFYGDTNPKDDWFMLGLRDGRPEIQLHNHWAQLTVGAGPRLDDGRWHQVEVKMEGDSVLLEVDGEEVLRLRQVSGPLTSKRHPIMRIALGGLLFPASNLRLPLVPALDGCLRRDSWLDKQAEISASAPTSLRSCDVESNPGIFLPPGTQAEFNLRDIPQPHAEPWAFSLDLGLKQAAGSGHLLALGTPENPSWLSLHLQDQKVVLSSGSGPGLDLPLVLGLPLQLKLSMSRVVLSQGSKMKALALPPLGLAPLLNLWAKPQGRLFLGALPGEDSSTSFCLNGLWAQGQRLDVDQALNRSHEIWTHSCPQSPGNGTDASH
# [6] = system: patient with uncontrolled diabetes; test: Example 4: testosterone subcutaneous pellets in a person with uncontrolled diabetes; format: in vivo, human; conditions: 250 to 900 mg subcutaneous pellets every six weeks over six months, before: 100 units of Humulin
# Description: G. S. was a person with uncontrolled diabetes for ten years. Seen intermittently for ulceration of the feet, they presented with a serum glucose of 550 while on 100 units of Humulin. They refused admission to the hospital.
# Over the course of six months, […] received 250 to 900 mg of […] testosterone subcutaneous pellets every six (6) weeks. […] insulin requirements were reduced 35 units while […] serum glucose remained stable at 140 to 180 mg/dl; see FIG. 3.
# [7] = system: menopausal women; conditions: cited from earlier work
# [8] = system: insulin dependent diabetic patient; test: Example 2: intramuscular depo-testosterone enanthate in an insulin dependent diabetic person; format: in vivo, human; conditions: 150 mg intramuscularly three times weekly
# Description: A. W. was a person who has been an insulin dependent diabetic for fifteen years. […] They were scheduled for amputation. They used 24 units of Humulin insulin in the morning and 16 units at night. Their fasting blood glucose was 334. Treated with 150 mg of depo-testosterone enanthate intramuscularly, three times weekly, they became euglycemic on less than 12 units daily; see FIG. 1. However, due to the infected heel ulcer, amputation proceeded.
# [9] = system: diabetic patient on oral hypoglycemic agents; test: Example 3: intramuscular depo-testosterone in a person on oral hypoglycemic agents; format: in vivo, human; conditions: 250 mg intramuscularly three times weekly for four weeks
# Description: J. G. was a person on oral hypoglycemic agents for ten years. Present dosage was 20 mg/day, Micronase 7 (Upjohn). They presented with ulcerations in four areas of their left foot, no dorsal pedis pulsation, and was scheduled for amputation but refused. Fasting glucose was 244.
# [10] = system: subject (tissue glucose stores); test: Example 5: intramuscular testosterone enanthate, Hemoglobin A1C; format: in vivo, human; conditions: 9.9 in May
# Description: Testosterone enanthate 300 mg was given to a subject intramuscularly twice weekly for four weeks, then continued with therapy of 300 mg every two weeks.
compound,measurement,setting,value
Cc1c(C)c2c(c(C)c1O)CCC(C)(COc1ccc(CC3SC(=O)NC3=O)cc1)O2 (stereo not drawn) [troglitazone],side effects,[1]; as reported to date,"abnormal liver function tests, jaundice, drop in white blood cell count and drop in hemoglobin which may persist for two years"
same,lowering of effective blood level of co-administered drugs,"[1]; oral contraceptives, terfenadine, and choleslyramine",up to 30%
same,sarcomatous tumors,"[2]; daily for 104 weeks, dose associated with excessive mortality",statistically significant increase in sarcomatous tumors
same,exposure relative to estimated human exposure of parent compound,[2],47 fold
C[C@]12CC[C@H]3[C@@H](CCC4=CC(=O)CC[C@@]43C)[C@@H]1CC[C@@H]2O [testosterone],cluster headaches/migraines,[3],complete absence of cluster headaches/migraines for two years
same,healing of gangrenous finger,[4]; amputation made unnecessary,healed completely in two months
same,fasting glucose,"[4]; person, after intramuscular injection of 200 mg, fell from 212",159
same,serum glucose outcome,[4]; repeated dosing every other day for one week,normalization of their serum glucose
same,insulin requirement (Humulin daily),"[4]; repeated dosing every other day for one week, decrease from 44 units",24 units
same,binding affinity K,[5],approximately 10^9 M^−1
same,insulin requirements reduced,[6],35 units
estrogen,reduction of cardiovascular disease mortality,[7],fifty percent
CCCCCCC(=O)O[C@H]1CC[C@H]2[C@@H]3CCC4=CC(=O)CC[C@]4(C)[C@H]3CC[C@]12C [Testosterone enanthate],insulin requirement daily,[8]; before: 24 units morning and 16 units at night,less than 12 units
same,glycemic status,"[8]; person, fasting blood glucose before 334",euglycemic
same,use of oral hypoglycemic agents,[9]; before: Micronase 20 mg/day,discontinuing their oral agents
same,glycemic status,"[9]; person, fasting glucose before 244",euglycemic
same,Hemoglobin A1C,"[10]; August, 1998, 300 mg intramuscularly twice weekly for four weeks then every two weeks",7.2
same,Hemoglobin A1C,"[10]; October, 1998, 300 mg intramuscularly twice weekly for four weeks then every two weeks",5.5
